No end group written: not given here.
Columns and labels:
[1] = system: cochlear hair cells of Rosa-tdTomato f/f (floxP-tdTomato) mice; experiment: Supercharged GFP-Cre delivery to hair cells of tdTomato reporter mouse cochlea in vivo; conditions: for hair cells tdT-labeled: near the injection site (base turn of cochlea)
Experimental: FIGS. 10A and 10B show the in vivo delivery of Cre recombinase to hair cells in the mouse inner ear. FIG. 10A: The scala media (cochlear duct) of P0 floxP-tdTomato mice (n=4) were injected with 0.3 μL of 23 μM (−30)GFP-Cre in 50% RNAiMAX or with RNAiMAX alone (control). After 5 days, tdTomato expression indicative of Cre-mediated recombination was visualized using immunohistology. Red=tdTomato; green=Myo7a; white=Sox2; blue=DAPI. Yellow brackets indicate the outer hair cell (OHC) region. […] Red=tdTomato; green=Esp, white=Sox2; blue=DAPI, Scale bars: 10 μm.
P1 floxP-tdTomato mice (The Jackson Laboratory) were used for (−30)GFP-Cre injection and P2 Atoh1-GFP mice (Dr. J Johnson, Southwestern Medical Center, University of Texas) were used for Cas9:sgRNA injection. Animals were used under protocols approved by the Massachusetts Eye & Ear Infirmary ALCUC committee. Mice were anesthetized by lowering their temperature on ice. Cochleostomies were performed by making an incision behind the ear to expose the cochlea. Glass micropipettes held by a micromanipulator were used to deliver the complex into the scala media, which allows access to inner ear hair cells. For delivery of (−30)GFP-Cre, 3 μL of 45 μM protein was mixed with 3 μL of either RNAiMAX or Lipofectamine 2000 and incubated at room temperature for 30 minutes prior to injection. Four mice were injected per treatment group. […]
5-10 days after injection, the mice were sacrificed and cochlea were harvested by standard protocols. […] To quantify the number of tdTomato positive cells after (−30)GFP-Cre or GFP negative cells after Cas9:sgRNA delivery, the total number of outer hair cells were counted in a region spanning 200 μm around the site of injection in the base turn of the cochlea. The efficiency of (−30)GFP-Cre-induced recombination or Cas9:sgRNA-induced genome modification was calculated as the percentage of outer hair cells that expressed tdTomato or that lost GFP expression. […]

[2] = system: inner ear cell types (IHC, OHC, SC) of Rosa-tdT mouse; experiment: (+36)-GFP-aurein-Cre injection into P3 Rosa-tdT mouse inner ear by cochleostomy; format: in vivo; conditions: 50 μM
Experimental: FIGS. 11A-11E show the high efficiency of protein delivery mediated by aurein in the inner ear in vivo. […] FIG. 11E: In Opti-MEM injected control mice no tdT labeling was detected in any inner ear cells. Scale bars: 10 μm.
It was next tested whether Aurein, an antimicrobial peptide, in combination with s-GFP, can serve as an effective carrier to deliver functional proteins into mouse inner ear cell types with high efficiency. (+36)-GFP-aurein-Cre was injected with different concentrations into P3 Rosa-tdT mouse inner ear by cochleostomy in vivo. The tissues were harvested 5 days later for immunolabeling to identify tdT^+ inner ear cell types. […] At 22.5 μM, 58% of OHC and 75% of IHC, as well as 8% of SC were tdT^+. At the highest 50 μM, 96% of OHC, 88% of IHC and 19% of SC were tdT^+. Some spiral ganglion neurons were also tdT at 22.5 and 50 μM (FIGS. 11A-11E and FIG. 12).

BSR.LNL.tdTomato cells [3] = experiment: Primary screen for cytosolic delivery of Cre recombinase (fluorescence image analysis); format: cell-based, hamster; conditions: for level of recombination of sortase-conjugated peptide-(+36 GFP)-Cre: 250 nM, primary screen
Experimental: Initial screen of 20 peptide-(+36 GFP)-Cre conjugated proteins. Cytosolic Cre delivery results in recombination and tdTomato expression. The percentage of tdTomato positive cells was determined by fluorescence image analysis. […] Cells were washed and supplanted with full DMEM and incubated for 48 h. Error bars represent the standard deviation of three independent biological replicates.
BSR.LNL.tdTomato cells were plated at 10,000 cells per well in black 384-well plates (Aurora Biotechnologies). […] Following incubation, the cells were washed three times with PBS+20 U/mL heparin. The cells were incubated a further 48 h in serum-containing media. Cells were fixed in 3% paraformaldehyde and stained with Hoescht 33342 nuclear dye. […] Images were exposed for 10 ms in the DAPI channel (Hoechst) and 500 ms in the dsRed channel (tdTomato). Image analysis was performed using the cell-scoring module of MetaXpress software (Molecular Devices). All nuclei were detected with a minimum width of 1 pixel, maximum width of 3 pixels, and an intensity of 200 gray levels above background. Positive cells were evaluated for uniform signal in the dsRed channel (minimum width of 5 pixels, maximum width of 30 pixels, intensity >200 gray levels above background, 10 μm minimum stained area). In total, nine images were captured and analyzed per well, and 16 wells were treated with the same fusion protein. The primary screen was completed in biological triplicate.
Because Cre recombinase must enter the cell, escape endosomes, enter the nucleus, and catalyze recombination to generate tdTomato fluorescence, this assay reflects the availability of active, non-endosomal recombinase enzyme that reaches the nucleus.
The reporter BSR.LNL.tdTomato cells were incubated with 250 nM of each peptide-(+36 GFP)-Cre protein in serum-free media.

BSR.LNL.tdTomato cells [4] = experiment: ATP-dependent cell viability assay (CELLTITER-GLO); conditions: 1 μM, 48 h after treatment
Experimental: (§1) FIGS. 15A, 15B are graphs showing the efficacy and toxicity of recombinant expression fusions of aurein 1.2 (“E”) and citropin 1.3 (“U”). […] The percentage of tdTomato positive cells was determined by flow cytometry. Protein fusions were delivered at 125 nM, 250 nM, 500 nM, and 1 μM. […] Protein fusions were delivered at 125 nM, 250 nM, 500 nM, and 1 μM. […] Cells were treated with 250 nM protein for 4 h in serum-free media. Cells were washed and supplanted with full DMEM and incubated for 48 h. Error bars represent the standard deviation of three independent biological replicates.
(§2) Uptake and delivery assays for Cre fusion proteins were performed as previously described (Cronican, J. J.; et al. ACS Chemical Biology 2010, 5, 747). Briefly, proteins were diluted in serum-free DMEM and incubated on the cells in 48-well plates for 4 h at 37° C. Following incubation, the cells were washed three times with PBS+20 U/mL heparin. The cells were incubated a further 48 h in serum-containing media prior to trypsinization and analysis by flow cytometry. […] Toxicity for alanine scan mutational analysis was determined with LIVE/DEAD fixable far-red dead cell stain (Life Technologies) with 635 nm laser and 670/30 nm filter.
Next, the toxicity of each fusion protein was evaluated at a range of concentrations (125 nM to 1 μM) using an ATP-dependent cell viability assay at 48 h after treatment.

[5] = system: cochlear inner hair cells, outer hair cells and supporting cells; format: in vivo
Experimental: 0.4 μL of 50 μM+36 GFP-Cre or aurein 1.2-+36 GFP-Cre were injected into the scala media. […] Inner hair cells (IHC), outer hair cells (OHC) and supporting cells in the sensory epithelium (SE) were imaged for the presence of tdTomato, which is only expressed following Cre-mediated recombination. Hair cells were labeled with antibodies against the hair-cell marker Myo7a.
P1-2 Gt(ROSA)26Sor^tm14(CAG-tdTomato)Hze mice were used for aurein 1.2-+36-GFP-Cre and +36-GFP-Cre injection. The Rosa26-tdTomato mice were from the Jackson Laboratory. Animals were used under protocols approved by the Massachusetts Eye & Ear Infirmary IACUC committee. Mice were anesthetized by hypothermia on ice. Cochleostomies were performed by making an incision behind the ear to expose the cochlea. Glass micropipettes held by a micromanipulator were used to deliver the complex into the scala media, which allows access to inner ear hair cells. The total delivery volume for every injection was 0.4 μL per cochlea and the release was controlled by a micromanipulator at the speed of 69 nL/min.
To quantify the number of tdTomato positive cells after aurein 1.2-+36-GFP-Cre and +36-GFP-Cre, we counted the total number of inner and outer hair cells in a region spanning 100 μm in the apex, middle, and base turn of the cochlea.
Both the hair cells (Myo7a+) and supporting cells (Myo7a−) were evaluated for td Tomato signal.

mouse retina = conditions: +36 GFP-Cre alone; cited from earlier work
[6] = system: glucocorticoid receptor (GR-mCherry) in HeLa cells; experiment: GR-mCherry translocation assay; format: cell-based; conditions: 1 μM for 30 min, HeLa cells expressing GR-mCherry
Experimental: One day prior to transfection 10,000 HeLa cells in 200 μL of DMEM (10% FBS, 1× Pen-Strep) were plated into single wells of a 96-well MATRICAL glass bottom microplate (MGB096-1-2-LG-L) and allowed to adhere overnight. The following day, cells were transfected with GRmCherry using LIPOFECTAMINE® 2000 technologies. Following transfection, cells were allowed to recover overnight in DMEM (+10% FBS). The following day, cells were treated with dexamethasone (Dex) or 1 μM Dex-protein conjugate in the presence or absence of inhibitor diluted into DMEM (without phenol red, +300 nM Hoescht33342). After 30 min, cells were washed twice with 200 μL of HEPES-Krebs-Ringer's (HKR) buffer (140 mM NaCl, 2 mM KCl, 1 mM CaCl2, 1 mM MgCl2, and 10 mM HEPES at pH 7.4), after which 100 μL of HKR buffer was overlaid onto the cells and images were acquired on a Zeiss Axiovert 200M epifluorescence microscope outfitted with Ziess AxiocammRM camera and an EXFO-Excite series 120 Hg arc lamp. The translocation ratio (the ratio of median […] intensity in the nuclear and surrounding regions) for individual cells was measured using CELLPROFILER® as described 36. […]
Although endosomal escape is widely considered to be the major bottleneck of cationic protein delivery (Sahay, G.; et al. Nature Biotechnology 2013, 31, 653), few assays quantify the ability of proteins to escape endosomes on a single-cell basis.

BSR.LNL.tdTomato cells [7] = experiment: Cre delivery assay with expressed fusion proteins (flow cytometry); format: cell-based, hamster; conditions: 250 nM, compared with unmutated aurein 1.2-+36 GFP-Cre
Experimental: as §1
as §2, with “cytometry. All flow cytometry were carried out on a BD Fortessa flow cytometer (Becton-Dickinson) using 530/30 nm and 610/20 nm filter sets.” for “cytometry.”

BSR.LNL.tdTomato cells [8] = experiment: Toxicity of aurein 1.2 variants fused to +36 GFP-Cre; format: cell-based, hamster; conditions: 250 nM
Text: FIGS. 16A, 16B are graphs showing the activity and cytotoxicity of aurein 1.2 variants fused to +36 GFP-Cre (FIG. 16A). […] (FIG. 16B) Toxicity as determined by CELLTITERGLO (Promega) assay.

(−30)GFP-Cre: negatively supercharged GFP fused to Cre recombinase, SEQ ID NO: 4
hair cells tdT-labeled [1]: ~30% | stereocilia of tdTomato-positive outer hair cells ([1]; ten days after delivery, 23 μM in 50% RNAiMAX, P0 floxP-tdTomato mice): intact espin (Esp)-expressing stereocilia

+36 GFP-Cre: superpositively charged GFP fused to Cre recombinase, SEQ ID NO: 1
hair cells tdT-labeled [1]: ~30% | tdT labeling of cochlear cell types [2]: very few IHC and HC were labeled with tdT | recombined cells with chloroquine (positive control) (BSR.LNL.tdTomato cells [3]; 250 nM protein incubated with 100 μM chloroquine): 48% | cells expressing tdTomato (recombined cells) (BSR.LNL.tdTomato cells [3]; 250 nM protein, 4 h serum-free media, then 48 h): 4.5% | cell viability (BSR.LNL.tdTomato cells [4]): 85% | Cre-mediated recombination in inner hair cells (IHC) ([5]; apex, 50 μM): 4.4% | recombination in mouse retina (mouse retina): modest levels of recombination

Arg8^Dex: canonical cell permeable peptide (SEQ ID NO: 102), dexamethasone-labeled positive control (RRRRRRRR; also: dexamethasone label)
nuclear-to-cytoplasm translocation ratio (TR) [6]: 1.63

GLFDIIKKIAEAF [S12A, aurein 1.2 variant expressed as fusion with +36 GFP-Cre]
recombination efficiency of aurein 1.2 variants fused to +36 GFP-Cre (BSR.LNL.tdTomato cells [7]): potentially improved overall recombination efficiency | toxicity of aurein 1.2 variants (BSR.LNL.tdTomato cells [8]): increased toxicity

GLFDIIKKIAESF [aurein 1.2]
level of recombination of sortase-conjugated peptide-(+36 GFP)-Cre (BSR.LNL.tdTomato cells [3]): highest level of recombination | potency of Cre delivery into cochlear hair cells when fused with aurein 1.2 vs absence of the peptide ([5]; live mice): > 20 fold

GLFDIIKKVASVIGGL (listed as Litoria citropa) [citropin 1.3]
level of recombination of sortase-conjugated peptide-(+36 GFP)-Cre (BSR.LNL.tdTomato cells [3]): moderate level of recombination

GLFDIIKRIAESF [K8R, aurein 1.2 variant expressed as fusion with +36 GFP-Cre]
recombination efficiency of aurein 1.2 variants fused to +36 GFP-Cre (BSR.LNL.tdTomato cells [7]): potentially improved overall recombination efficiency | toxicity of aurein 1.2 variants (BSR.LNL.tdTomato cells [8]): increased toxicity

— patent US10258697B2, “Efficient delivery of therapeutic molecules in vitro and in vivo” (Massachusetts Eye and Ear Infirmary, priority 2014, dated 2019)
